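Assay format: 96-well plates, 48-hour exposure. At the GI50, growth is halved. TGI marks complete inhibition of growth.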
Key:
Assay in all cases: DTP human tumour cell line panel, 48 h; in the data active = GI50 below about 0.43 µM; inactive = the rest
CAKI-1 renal = system: CAKI-1 renal
NCI-H460 lung = system: NCI-H460 lung
MDA-N = system: MDA-N
OVCAR-4 ovarian = system: OVCAR-4 ovarian
SR leukemia = system: SR leukemia
CCRF-CEM leukemia = system: CCRF-CEM leukemia
SNB-19 CNS = system: SNB-19 CNS
MDA-MB-435 = system: MDA-MB-435
KM12 colon = system: KM12 colon
PC-3 prostate = system: PC-3 prostate
TK-10 renal = system: TK-10 renal
HCT-116 colon = system: HCT-116 colon
HS 578T breast = system: HS 578T breast
U251 CNS = system: U251 CNS
BT-549 breast = system: BT-549 breast
T-47D breast = system: T-47D breast
K-562 leukemia = system: K-562 leukemia
SK-MEL-5 melanoma = system: SK-MEL-5 melanoma
SF-268 CNS = system: SF-268 CNS
SN12C renal = system: SN12C renal
A498 renal = system: A498 renal
HOP-92 NSCLC = system: HOP-92 NSCLC
DU-145 prostate = system: DU-145 prostate
OVCAR-8 ovarian = system: OVCAR-8 ovarian
SK-MEL-28 melanoma = system: SK-MEL-28 melanoma
SW-620 colon = system: SW-620 colon
MDA-MB-231 breast = system: MDA-MB-231 breast
786-0 renal = system: 786-0 renal
A549 NSCLC = system: A549 NSCLC
HCT-15 colon = system: HCT-15 colon
NCI/ADR-RES ovarian = system: NCI/ADR-RES ovarian
HL-60(TB) leukemia = system: HL-60(TB) leukemia
HT29 colon = system: HT29 colon
COLO 205 colon = system: COLO 205 colon
UO-31 renal = system: UO-31 renal
NCI-H23 lung = system: NCI-H23 lung
LOX IMVI melanoma = system: LOX IMVI melanoma
UACC-257 melanoma = system: UACC-257 melanoma
ACHN renal = system: ACHN renal
SNB-75 CNS = system: SNB-75 CNS
UACC-62 melanoma = system: UACC-62 melanoma
SK-MEL-2 melanoma = system: SK-MEL-2 melanoma
HCC-2998 colon = system: HCC-2998 colon
NCI-H226 lung = system: NCI-H226 lung
MCF7 breast = system: MCF7 breast
SK-OV-3 ovarian = system: SK-OV-3 ovarian
MALME-3M melanoma = system: MALME-3M melanoma
SF-539 CNS = system: SF-539 CNS
OVCAR-3 ovarian = system: OVCAR-3 ovarian
RXF 393 renal = system: RXF 393 renal
M14 melanoma = system: M14 melanoma
IGROV1 ovarian = system: IGROV1 ovarian
OVCAR-5 ovarian = system: OVCAR-5 ovarian
HOP-62 NSCLC = system: HOP-62 NSCLC
EKVX NSCLC = system: EKVX NSCLC
RPMI-8226 leukemia = system: RPMI-8226 leukemia
MOLT-4 leukemia = system: MOLT-4 leukemia
SF-295 CNS = system: SF-295 CNS
NCI-H522 lung = system: NCI-H522 lung

C[C@@H](c1ccccc1)n1c(N)c(C#N)c2ccc([N+](=O)[O-])cc2c1=O
27.7 µM: TGI (HL-60(TB) leukemia)
36 µM: TGI (NCI-H460 lung)
35.7 µM: TGI (OVCAR-4 ovarian)
26.1 µM: TGI (K-562 leukemia)
28.2 µM: TGI (HCT-15 colon)
43 µM: TGI (NCI-H23 lung)
22.5 µM: TGI (NCI/ADR-RES ovarian)
> 100 µM: TGI (PC-3 prostate) | TGI (SF-268 CNS) | TGI (A549 NSCLC) | TGI (SK-MEL-2 melanoma)
37 µM: TGI (MDA-MB-231 breast)
24 µM: TGI (TK-10 renal) | TGI (HOP-92 NSCLC)
24.1 µM: TGI (UO-31 renal)
28.8 µM: TGI (HCT-116 colon)
34.9 µM: TGI (LOX IMVI melanoma)
48.3 µM: TGI (SW-620 colon)
42.8 µM: TGI (KM12 colon)
24.4 µM: TGI (A498 renal)
12.2 µM: TGI (SR leukemia)
30.6 µM: TGI (OVCAR-8 ovarian)
13.2 µM: TGI (NCI-H226 lung)
39.5 µM: TGI (SK-MEL-28 melanoma)
28.1 µM: TGI (HT29 colon)
78.4 µM: TGI (MDA-N)
50.8 µM: TGI (SK-MEL-5 melanoma)
46.2 µM: TGI (SNB-75 CNS)
28.4 µM: TGI (SN12C renal)
30.8 µM: TGI (COLO 205 colon)
51.1 µM: TGI (T-47D breast)
61 µM: TGI (MDA-MB-435)
39.3 µM: TGI (CAKI-1 renal)
29.1 µM: TGI (SNB-19 CNS)
30.4 µM: TGI (UACC-62 melanoma)
59.1 µM: TGI (U251 CNS)
39.4 µM: TGI (HCC-2998 colon)
33 µM: TGI (CCRF-CEM leukemia) | TGI (DU-145 prostate)
30 µM: TGI (BT-549 breast)
31.3 µM: TGI (786-0 renal)
40.3 µM: TGI (UACC-257 melanoma)
29.5 µM: TGI (ACHN renal)
69.4 µM: TGI (HS 578T breast)

COc1ccc(C[N+](C)(C)N)cc1OC
inactive: GI50 (CAKI-1 renal) > 100 µM | GI50 (MCF7 breast) > 100 µM | GI50 (MDA-N) > 100 µM | GI50 (OVCAR-4 ovarian) > 100 µM | GI50 (SR leukemia) > 100 µM | GI50 (CCRF-CEM leukemia) > 100 µM | GI50 (SK-OV-3 ovarian) > 100 µM | GI50 (MALME-3M melanoma) > 100 µM | GI50 (SNB-19 CNS) > 100 µM | GI50 (SF-539 CNS) > 100 µM | GI50 (MDA-MB-435) > 100 µM | GI50 (OVCAR-3 ovarian) > 100 µM | GI50 (KM12 colon) > 100 µM | GI50 (M14 melanoma) > 100 µM | GI50 (PC-3 prostate) > 100 µM | GI50 (TK-10 renal) > 100 µM | GI50 (HCT-116 colon) > 100 µM | GI50 (HS 578T breast) > 100 µM | GI50 (U251 CNS) > 100 µM | GI50 (BT-549 breast) > 100 µM | GI50 (SK-MEL-5 melanoma) > 100 µM | GI50 (SF-268 CNS) > 100 µM | GI50 (SN12C renal) > 100 µM | GI50 (OVCAR-5 ovarian) > 100 µM | GI50 (HOP-92 NSCLC) > 100 µM | GI50 (HOP-62 NSCLC) > 100 µM | GI50 (DU-145 prostate) > 100 µM | GI50 (OVCAR-8 ovarian) > 100 µM | GI50 (SK-MEL-28 melanoma) > 100 µM | GI50 (SW-620 colon) > 100 µM | GI50 (MDA-MB-231 breast) > 100 µM | GI50 (786-0 renal) > 100 µM | GI50 (A549 NSCLC) > 100 µM | GI50 (HCT-15 colon) > 100 µM | GI50 (NCI/ADR-RES ovarian) > 100 µM | GI50 (HL-60(TB) leukemia) > 100 µM | GI50 (HT29 colon) > 100 µM | GI50 (COLO 205 colon) > 100 µM | GI50 (RPMI-8226 leukemia) > 100 µM | GI50 (NCI-H23 lung) > 100 µM | GI50 (LOX IMVI melanoma) > 100 µM | GI50 (MOLT-4 leukemia) > 100 µM | GI50 (UACC-257 melanoma) > 100 µM | GI50 (ACHN renal) > 100 µM | GI50 (SF-295 CNS) > 100 µM | GI50 (SNB-75 CNS) > 100 µM | GI50 (NCI-H522 lung) > 100 µM
> 100 µM: TGI (CAKI-1 renal) | TGI (NCI-H460 lung) | TGI (MCF7 breast) | TGI (MDA-N) | TGI (OVCAR-4 ovarian) | TGI (SR leukemia) | TGI (CCRF-CEM leukemia) | TGI (SK-OV-3 ovarian) | TGI (MALME-3M melanoma) | TGI (SNB-19 CNS) | TGI (SF-539 CNS) | TGI (MDA-MB-435) | TGI (OVCAR-3 ovarian) | TGI (KM12 colon) | TGI (RXF 393 renal) | TGI (M14 melanoma) | TGI (PC-3 prostate) | TGI (TK-10 renal) | TGI (HCT-116 colon) | TGI (HS 578T breast) | TGI (U251 CNS) | TGI (BT-549 breast) | TGI (K-562 leukemia) | TGI (SK-MEL-5 melanoma) | TGI (SF-268 CNS) | TGI (SN12C renal) | TGI (A498 renal) | TGI (IGROV1 ovarian) | TGI (OVCAR-5 ovarian) | TGI (HOP-92 NSCLC) | TGI (HOP-62 NSCLC) | TGI (DU-145 prostate) | TGI (EKVX NSCLC) | TGI (OVCAR-8 ovarian) | TGI (SK-MEL-28 melanoma) | TGI (SW-620 colon) | TGI (MDA-MB-231 breast) | TGI (786-0 renal) | TGI (A549 NSCLC) | TGI (HCT-15 colon) | TGI (NCI/ADR-RES ovarian) | TGI (HL-60(TB) leukemia) | TGI (HT29 colon) | TGI (COLO 205 colon) | TGI (UO-31 renal) | TGI (RPMI-8226 leukemia) | TGI (NCI-H23 lung) | TGI (LOX IMVI melanoma) | TGI (MOLT-4 leukemia) | TGI (UACC-257 melanoma) | TGI (ACHN renal) | TGI (SF-295 CNS) | TGI (SNB-75 CNS) | TGI (UACC-62 melanoma) | TGI (SK-MEL-2 melanoma) | TGI (NCI-H522 lung) | TGI (NCI-H226 lung)

Nc1ccc(Cc2c(N)[nH]c(=O)[nH]c2=O)cc1
> 100 µM: TGI (CAKI-1 renal) | TGI (NCI-H460 lung) | TGI (MCF7 breast) | TGI (MDA-N) | TGI (OVCAR-4 ovarian) | TGI (CCRF-CEM leukemia) | TGI (SK-OV-3 ovarian) | TGI (MALME-3M melanoma) | TGI (SNB-19 CNS) | TGI (SF-539 CNS) | TGI (MDA-MB-435) | TGI (OVCAR-3 ovarian) | TGI (M14 melanoma) | TGI (PC-3 prostate) | TGI (HCT-116 colon) | TGI (HS 578T breast) | TGI (U251 CNS) | TGI (BT-549 breast) | TGI (T-47D breast) | TGI (K-562 leukemia) | TGI (SK-MEL-5 melanoma) | TGI (SF-268 CNS) | TGI (SN12C renal) | TGI (A498 renal) | TGI (OVCAR-5 ovarian) | TGI (HOP-92 NSCLC) | TGI (DU-145 prostate) | TGI (OVCAR-8 ovarian) | TGI (SK-MEL-28 melanoma) | TGI (SW-620 colon) | TGI (MDA-MB-231 breast) | TGI (786-0 renal) | TGI (A549 NSCLC) | TGI (HCT-15 colon) | TGI (NCI/ADR-RES ovarian) | TGI (HL-60(TB) leukemia) | TGI (HT29 colon) | TGI (COLO 205 colon) | TGI (UO-31 renal) | TGI (RPMI-8226 leukemia) | TGI (NCI-H23 lung) | TGI (LOX IMVI melanoma) | TGI (MOLT-4 leukemia) | TGI (UACC-257 melanoma) | TGI (ACHN renal) | TGI (SF-295 CNS) | TGI (UACC-62 melanoma) | TGI (SK-MEL-2 melanoma) | TGI (HCC-2998 colon) | TGI (NCI-H522 lung) | TGI (NCI-H226 lung)

From PubChem BioAssay (NCI)
